Laboratory results as given in ChEMBL document CHEMBL4017455, “Novel small molecule guanidine Sigma1 inhibitors for advanced prostate cancer” (Bioorg Med Chem Lett, 2017).
≈ marks a conversion by molar mass, not a printed value. Calls of active or inactive are those of the source. No cut-off for these calls is given here.

How the values were obtained:
Androgen receptor = target: T1, Androgen receptor (Homo sapiens, UniProt P10275); assay: Antagonist activity at full length human androgen receptor expressed in mammalian expression system measured after 22 to 24 hrs by luciferase reporter gene assay
T1 sequence (P10275 whole entry): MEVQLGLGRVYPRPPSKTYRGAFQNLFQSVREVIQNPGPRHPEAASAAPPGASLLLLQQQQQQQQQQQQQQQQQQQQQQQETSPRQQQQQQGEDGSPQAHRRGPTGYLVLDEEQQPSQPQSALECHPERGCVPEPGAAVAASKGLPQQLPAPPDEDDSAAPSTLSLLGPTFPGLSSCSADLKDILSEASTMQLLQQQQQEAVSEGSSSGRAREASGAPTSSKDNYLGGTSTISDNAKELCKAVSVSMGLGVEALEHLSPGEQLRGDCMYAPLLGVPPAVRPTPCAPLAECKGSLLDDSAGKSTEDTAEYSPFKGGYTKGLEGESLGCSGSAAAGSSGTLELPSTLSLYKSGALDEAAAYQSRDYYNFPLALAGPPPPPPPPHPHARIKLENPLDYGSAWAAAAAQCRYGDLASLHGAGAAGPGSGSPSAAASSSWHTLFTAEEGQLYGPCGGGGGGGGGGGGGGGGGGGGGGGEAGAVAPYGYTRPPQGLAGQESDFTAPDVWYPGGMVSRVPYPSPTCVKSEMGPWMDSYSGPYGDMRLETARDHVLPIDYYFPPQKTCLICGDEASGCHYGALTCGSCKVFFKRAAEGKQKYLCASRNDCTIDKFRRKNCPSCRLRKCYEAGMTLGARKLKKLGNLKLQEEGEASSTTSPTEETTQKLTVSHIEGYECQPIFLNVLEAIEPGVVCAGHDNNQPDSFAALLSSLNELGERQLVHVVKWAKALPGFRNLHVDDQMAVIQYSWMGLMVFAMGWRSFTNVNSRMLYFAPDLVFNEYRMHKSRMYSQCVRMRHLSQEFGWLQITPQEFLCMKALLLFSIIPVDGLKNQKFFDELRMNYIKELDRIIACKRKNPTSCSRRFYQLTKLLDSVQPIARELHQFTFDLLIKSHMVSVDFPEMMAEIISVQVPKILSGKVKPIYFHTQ

[1] = target: T2, Voltage-gated inwardly rectifying potassium channel KCNH2 (Homo sapiens, UniProt Q12809); assay: Inhibition of human ERG
[2] = target: T2, Voltage-gated inwardly rectifying potassium channel KCNH2; assay: Inhibition of human ERG expressed in CHOK1 cells by Qpatch clamp method
[3] = target: T3, Sigma non-opioid intracellular receptor 1 (Homo sapiens, UniProt Q99720); assay: Displacement of [3H]-(+)-pentazocine from sigma1 in human MDA-MB-468 cell membranes
MDA-MB-468 = assay: Antiproliferative activity against human MDA-MB-468 cells at 3 to 20 uM by CellTiter-Glo assay; assay type: functional, cell-based
Plasma [4] = assay: Protein binding in mouse plasma; assay type: ADME, cell-free
Plasma [5] = assay: Protein binding in human plasma; assay type: ADME, cell-free
[6] = Stability in mouse plasma; assay type: ADME, cell-free; conditions: read-out: Stability
[7] = Stability in human plasma; assay type: ADME, cell-free; conditions: read-out: Stability
[8] = Stability in mouse liver microsomes; assay type: ADME, microsome; conditions: read-out: Stability
[9] = Stability in human liver microsomes; assay type: ADME, microsome; conditions: read-out: Stability
[10] = Solubility of compound in PBS buffer at pH 7.4; assay type: physicochemical
[11] = target: T3, Sigma non-opioid intracellular receptor 1; assay: Displacement of [125I]-IPAG from sigma1 in human MDA-MB-468 cell membranes
[12] = AUC (0 to infinity) in Swiss mouse plasma at 2 mg/kg, iv; assay type: ADME, organism-based; set-up: dose 2 mg/kg, time infinity, route intravenous
[13] = AUC (0 to infinity) in Swiss mouse plasma at 10 mg/kg, ip; assay type: ADME, organism-based; set-up: dose 10 mg/kg, route intraperitoneal, time infinity
[14] = AUC (0 to infinity) in Swiss mouse brain at 10 mg/kg, ip; assay type: ADME, organism-based; set-up: dose 10 mg/kg, time infinity, route intraperitoneal
[15] = Volume of distribution in Swiss mouse plasma at 2 mg/kg, iv; assay type: ADME, organism-based
[16] = Clearance in Swiss mouse plasma at 2 mg/kg, iv
[17] = AUC (0 to infinity) in Swiss mouse plasma at 10 mg/kg, po; assay type: ADME, organism-based; set-up: dose 10 mg/kg, time infinity, route oral
[18] = Half life in Swiss mouse plasma at 10 mg/kg, po
[19] = AUC (0 to infinity) in Swiss mouse plasma at 30 mg/kg, po; assay type: ADME, organism-based; set-up: dose 30 mg/kg, time infinity, route oral
[20] = Half life in Swiss mouse plasma at 30 mg/kg, po
[21] = Ratio of drug level in Swiss mouse brain to plasma at 10 mg/kg, ip
Plasma [22] = conditions: mouse, in vivo, ip, 10 mg/kg
Brain = conditions: mouse, in vivo, ip, 10 mg/kg
in vivo [23] = conditions: Swiss, mouse, plasma, po, 10 mg/kg
in vivo [24] = conditions: Swiss, mouse, plasma, po, 10 mg/kg; remark: listed apart in the source
in vivo [25] = conditions: Swiss, mouse, plasma, po, 10 mg/kg; remark: listed apart in the source
in vivo [26] = conditions: Swiss, mouse, plasma, po, 30 mg/kg
in vivo [27] = conditions: Swiss, mouse, plasma, po, 30 mg/kg; remark: listed apart in the source
in vivo [28] = conditions: Swiss, mouse, plasma, po, 30 mg/kg; remark: listed apart in the source

T2 sequence (Q12809 whole entry): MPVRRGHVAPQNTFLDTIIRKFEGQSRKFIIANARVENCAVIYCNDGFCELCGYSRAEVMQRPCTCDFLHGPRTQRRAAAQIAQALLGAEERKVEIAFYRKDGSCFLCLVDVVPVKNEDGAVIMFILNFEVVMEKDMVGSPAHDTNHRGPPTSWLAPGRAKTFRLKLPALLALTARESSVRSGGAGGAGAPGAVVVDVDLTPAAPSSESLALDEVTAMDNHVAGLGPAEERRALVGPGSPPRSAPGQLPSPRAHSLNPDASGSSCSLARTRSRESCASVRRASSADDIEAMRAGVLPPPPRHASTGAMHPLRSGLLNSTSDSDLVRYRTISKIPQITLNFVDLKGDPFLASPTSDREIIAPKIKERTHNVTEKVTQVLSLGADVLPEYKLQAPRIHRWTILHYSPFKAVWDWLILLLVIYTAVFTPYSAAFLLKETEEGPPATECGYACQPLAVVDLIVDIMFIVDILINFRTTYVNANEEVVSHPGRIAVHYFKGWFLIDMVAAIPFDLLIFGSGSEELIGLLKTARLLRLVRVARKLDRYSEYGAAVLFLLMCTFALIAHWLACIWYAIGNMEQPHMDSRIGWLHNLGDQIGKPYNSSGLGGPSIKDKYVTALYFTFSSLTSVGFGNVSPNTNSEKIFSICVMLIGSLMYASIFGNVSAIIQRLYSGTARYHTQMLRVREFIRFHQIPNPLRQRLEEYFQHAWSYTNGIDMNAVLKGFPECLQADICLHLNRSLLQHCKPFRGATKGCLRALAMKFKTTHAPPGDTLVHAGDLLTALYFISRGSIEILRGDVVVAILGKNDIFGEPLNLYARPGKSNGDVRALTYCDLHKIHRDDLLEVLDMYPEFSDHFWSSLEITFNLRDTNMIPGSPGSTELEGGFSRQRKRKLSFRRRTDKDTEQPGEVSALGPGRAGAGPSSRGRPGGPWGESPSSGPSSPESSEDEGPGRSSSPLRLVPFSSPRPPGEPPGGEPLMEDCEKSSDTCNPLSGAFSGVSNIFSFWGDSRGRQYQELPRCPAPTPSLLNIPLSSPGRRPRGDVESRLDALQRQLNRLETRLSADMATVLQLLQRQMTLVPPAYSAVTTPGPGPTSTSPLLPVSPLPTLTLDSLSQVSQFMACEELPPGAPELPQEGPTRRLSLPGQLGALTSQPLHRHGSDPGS
T3 sequence (Q99720 whole entry): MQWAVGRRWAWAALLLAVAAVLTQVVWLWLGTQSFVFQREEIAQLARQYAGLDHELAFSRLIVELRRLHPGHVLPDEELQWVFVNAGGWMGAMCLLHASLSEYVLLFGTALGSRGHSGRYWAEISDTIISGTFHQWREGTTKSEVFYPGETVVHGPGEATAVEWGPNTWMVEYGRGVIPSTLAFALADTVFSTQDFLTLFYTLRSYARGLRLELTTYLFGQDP

EC50 (Androgen receptor)	Ki [3]	PPB (Plasma [4])	PPB (Plasma [5])	half-life [6]	half-life [7]	half-life [8]	half-life [9]	solubility [10]	SMILES	IC50 [1]	further results
9500 to 9750 nM	–	–	–	–	–	–	–	–	NC(=NC12CC3CC(CC(C3)C1)C2)Nc1ccc(I)cc1	491 nM	IC50 [2]: 2600 nM
–	46.1 nM	97.9%	96.6%	> 6 h	> 6 h	0.41 h	> 1.5 h	5370 µg/mL (≈ 13 mM)	N=C(NCCCOc1ccc(F)cc1)Nc1ccc(I)cc1	109 nM	Activity (MDA-MB-468): Active
–	–	–	–	–	–	–	–	–	N=C(NCCCOc1ccc(F)cc1)NCCCOc1ccc(F)cc1	–	Ki [11]: > 1000 nM
12700 nM	–	88.8%	93.4%	> 6 h	> 6 h	0.413 h	> 1.5 h	4580 µg/mL (≈ 14.2 mM)	N=C(NCCCOc1ccc(F)cc1)Nc1ccc(Cl)cc1	–	AUC(0-inf) [12]: 57 to 71 ng·h/mL; Activity (MDA-MB-468): Active; AUC(0-inf) [13]: 166 ng·h/mL; AUC(0-inf) [14]: 856 ng·h/mL; Vd [15]: 57.6 to 91 L/kg; clearance [16]: 469 to 586 mL/min/kg; AUC(0-inf) [17]: 141 ng·h/mL; half-life [18]: > 3 h; AUC(0-inf) [19]: 480 ng·h/mL; half-life [20]: > 3 h; Kp [21]: 5; Cmax (Plasma [22]): 438 nM; Cmax (Brain): 2150 nM; Cmax (in vivo [23]): 304 nM; Tmax (in vivo [24]): 0.25 h; AUC(0-t) (in vivo [25]): 119 ng·h/mL; Cmax (in vivo [26]): 674 nM; Tmax (in vivo [27]): 1 h; AUC(0-t) (in vivo [28]): 414 ng·h/mL
17000 to 17100 nM	–	–	–	–	–	–	–	–	CC(=O)O[C@H]1CC[C@@]2(C)C(=CC[C@@H]3[C@@H]2CC[C@]2(C)C(c4cccnc4)=CC[C@@H]32)C1 [ABIRATERONE ACETATE]	–	–
–	45.3 nM	–	–	–	–	–	–	–	N=C(NCCCOc1ccc(F)cc1)Nc1ccc(C(F)(F)F)cc1	–	–
28100 nM	13.4 nM	82.1%	75.1%	> 6 h	> 6 h	0.117 h	0.387 h	8450 µg/mL (≈ 26.6 mM)	COc1ccc(NC(=N)NCCCOc2ccc(F)cc2)cc1	417 nM	–
–	–	–	–	–	–	–	–	–	N=C(Nc1ccc(I)cc1)Nc1ccc(I)cc1	–	Ki [11]: 3 nM
